According to ChEMBL document CHEMBL3885881, “DrugMatrix”:

Species on record: Rattus norvegicus
Experiment: DrugMatrix - Regimen: Daily Repeat
Assay type: toxicity, organism-based, Sprague-Dawley
Design: regimen Daily Repeat, gender Male, age 6-8 weeks
Settings: in vivo, iv, vehicle 100 % SALINE; for ABSOLUTE BASOPHIL / ABSOLUTE EOSINOPHIL / ABSOLUTE LYMPHOCYTE / ABSOLUTE MONOCYTE / ABSOLUTE SEGMENTED NEUTROPHIL / BASOPHIL / EOSINOPHIL / ERYTHROCYTE COUNT / HEMATOCRIT / HEMOGLOBIN / LEUKOCYTE COUNT / LYMPHOCYTE / MEAN CORPUSCULAR HEMOGLOBIN / MEAN CORPUSCULAR HEMOGLOBIN CONCENTRATION / MEAN CORPUSCULAR VOLUME / MONOCYTE / NEUTROPHIL / NUCLEATED RED BLOOD CELLS: tissue Blood; for ALANINE AMINOTRANSFERASE / ALKALINE PHOSPHATASE / ASPARTATE AMINOTRANSFERASE / BLOOD UREA NITROGEN / CARBON DIOXIDE / CHOLESTEROL / CREATINE PHOSPHOKINASE / CREATININE / GLUCOSE / LACTATE DEHYDROGENASE / LIPASE / SODIUM / TOTAL BILIRUBIN / TOTAL PROTEIN / URIC ACID: tissue Plasma
[1] = 0 mg/kg, 72 h, dose level Control, time 3 day
[2] = 0 mg/kg, 120 h, dose level Control, time 5 day
[3] = […], 72 h, dose 0.27 mg/Kg, dose level Low, time 3 day
[4] = […], 72 h, dose 2.7 mg/Kg, dose level High, time 3 day

COc1cccc2c1C(=O)c1c(O)c3c(c(O)c1C2=O)C[C@@](O)(C(=O)CO)C[C@@H]3O[C@H]1C[C@H](N)[C@@H](O)[C@H](C)O1 [EPIRUBICIN]
ABSOLUTE BASOPHIL [1]: 0 CELLS/uL
ABSOLUTE EOSINOPHIL [1]: 23.17 CELLS/uL
ABSOLUTE LYMPHOCYTE [1]: 12448.83 CELLS/uL
ABSOLUTE MONOCYTE [1]: 259.5 CELLS/uL
ABSOLUTE SEGMENTED NEUTROPHIL [1]: 1635.17 CELLS/uL
BASOPHIL [1]: 0%
EOSINOPHIL [1]: 0.17%
ERYTHROCYTE COUNT [1]: 5.35 x10E6/uL
HEMATOCRIT [1]: 34.85%
HEMOGLOBIN [1]: 13.72 G/DL
LEUKOCYTE COUNT [1]: 14.37 x10E3/uL
LYMPHOCYTE [1]: 86.5%
MEAN CORPUSCULAR HEMOGLOBIN [1]: 25.67 pg
MEAN CORPUSCULAR HEMOGLOBIN CONCENTRATION [1]: 39.38 G/DL
MEAN CORPUSCULAR VOLUME [1]: 65.2 fL
MONOCYTE [1]: 1.83%
NEUTROPHIL [1]: 11.5%
NUCLEATED RED BLOOD CELLS [1]: 0 /100WBC
ALANINE AMINOTRANSFERASE [1]: 56.5 u/L
ALKALINE PHOSPHATASE [1]: 334 u/L
ASPARTATE AMINOTRANSFERASE [1]: 85.5 u/L
BLOOD UREA NITROGEN [1]: 16.33 mg/dL
CARBON DIOXIDE [1]: 26.5 mmol/L
CHOLESTEROL [1]: 70.33 mg/dL
CREATINE PHOSPHOKINASE [1]: 339.5 u/L
CREATININE [1]: 0.18 mg/dL
GLUCOSE [1]: 155.17 mg/dL
LACTATE DEHYDROGENASE [1]: 382 u/L
LIPASE [1]: 9.5 u/L
SODIUM [1]: 143.87 MEQ/L
TOTAL BILIRUBIN [1]: 0.2 mg/dL
TOTAL PROTEIN [1]: 5.98 G/DL
URIC ACID [1]: 1.53 mg/dL
ABSOLUTE BASOPHIL [2]: 0 CELLS/uL
ABSOLUTE EOSINOPHIL [2]: 16.17 CELLS/uL
ABSOLUTE LYMPHOCYTE [2]: 10653.67 CELLS/uL
ABSOLUTE MONOCYTE [2]: 17.17 CELLS/uL
ABSOLUTE SEGMENTED NEUTROPHIL [2]: 746.33 CELLS/uL
BASOPHIL [2]: 0%
EOSINOPHIL [2]: 0.17%
ERYTHROCYTE COUNT [2]: 5.88 x10E6/uL
HEMATOCRIT [2]: 36.68%
HEMOGLOBIN [2]: 14.6 G/DL
LEUKOCYTE COUNT [2]: 11.43 x10E3/uL
LYMPHOCYTE [2]: 91.83%
MEAN CORPUSCULAR HEMOGLOBIN [2]: 24.85 pg
MEAN CORPUSCULAR HEMOGLOBIN CONCENTRATION [2]: 39.8 G/DL
MEAN CORPUSCULAR VOLUME [2]: 62.47 fL
MONOCYTE [2]: 0.17%
NEUTROPHIL [2]: 7.83%
NUCLEATED RED BLOOD CELLS [2]: 0 /100WBC
ALANINE AMINOTRANSFERASE [2]: 45.5 u/L
ALKALINE PHOSPHATASE [2]: 330.17 u/L
ASPARTATE AMINOTRANSFERASE [2]: 93.33 u/L
BLOOD UREA NITROGEN [2]: 18 mg/dL
CARBON DIOXIDE [2]: 25.5 mmol/L
CHOLESTEROL [2]: 73.5 mg/dL
CREATINE PHOSPHOKINASE [2]: 434 u/L
CREATININE [2]: 0.2 mg/dL
GLUCOSE [2]: 148.83 mg/dL
LACTATE DEHYDROGENASE [2]: 603.83 u/L
LIPASE [2]: 10 u/L
SODIUM [2]: 139.78 MEQ/L
TOTAL BILIRUBIN [2]: 0.15 mg/dL
TOTAL PROTEIN [2]: 6.1 G/DL
URIC ACID [2]: 2.02 mg/dL
ABSOLUTE BASOPHIL [3]: 0 CELLS/uL
ABSOLUTE EOSINOPHIL [3]: 28 CELLS/uL
ABSOLUTE LYMPHOCYTE [3]: 4991.67 CELLS/uL
ABSOLUTE MONOCYTE [3]: 38 CELLS/uL
ABSOLUTE SEGMENTED NEUTROPHIL [3]: 375.67 CELLS/uL
BASOPHIL [3]: 0%
EOSINOPHIL [3]: 0.67%
ERYTHROCYTE COUNT [3]: 4.95 x10E6/uL
HEMATOCRIT [3]: 31.43%
HEMOGLOBIN [3]: 12.5 G/DL
LEUKOCYTE COUNT [3]: 5.43 x10E3/uL
LYMPHOCYTE [3]: 91.67%
MEAN CORPUSCULAR HEMOGLOBIN [3]: 25.3 pg
MEAN CORPUSCULAR HEMOGLOBIN CONCENTRATION [3]: 39.8 G/DL
MEAN CORPUSCULAR VOLUME [3]: 63.57 fL
MONOCYTE [3]: 0.67%
NEUTROPHIL [3]: 7%
NUCLEATED RED BLOOD CELLS [3]: 0 /100WBC
ABSOLUTE BASOPHIL [4]: 0 CELLS/uL
ABSOLUTE EOSINOPHIL [4]: 0 CELLS/uL
ABSOLUTE LYMPHOCYTE [4]: 4049.67 CELLS/uL
ABSOLUTE MONOCYTE [4]: 29.33 CELLS/uL
ABSOLUTE SEGMENTED NEUTROPHIL [4]: 387.67 CELLS/uL
BASOPHIL [4]: 0%
EOSINOPHIL [4]: 0%
ERYTHROCYTE COUNT [4]: 5.35 x10E6/uL
HEMATOCRIT [4]: 33.77%
HEMOGLOBIN [4]: 13.47 G/DL
LEUKOCYTE COUNT [4]: 4.47 x10E3/uL
LYMPHOCYTE [4]: 90.67%
MEAN CORPUSCULAR HEMOGLOBIN [4]: 25.2 pg
MEAN CORPUSCULAR HEMOGLOBIN CONCENTRATION [4]: 39.87 G/DL
MEAN CORPUSCULAR VOLUME [4]: 63.03 fL
